Results taken from ChEMBL document CHEMBL1136624, “Synthesis and anticancer effect of chrysin derivatives” (Bioorg Med Chem Lett, 2003).

Columns and labels:
[1] = system: HT-29; test: In vitro inhibitory concentration required against human colorectal adenocarcinoma HT-29 cell line; type: functional, cell-based
[2] = system: SGC-7901; test: In vitro inhibitory concentration required against human gastric adenocarcinoma SGC-7901 cell line; type: functional, cell-based

| Structure (SMILES) | IC50 [1] [nM] | IC50 [2] [nM] |
| --- | --- | --- |
| COc1cc(OC)c2c(=O)cc(-c3ccccc3)oc2c1C(F)(F)F | 2300 | 5900 |
| O=c1cc(-c2ccccc2)oc2c(I)c(O)c(I)c(O)c12 | 4400 | 2900 |
| O=c1cc(-c2ccccc2)oc2c([N+](=O)[O-])c(O)cc(O)c12 | 2300 | 2800 |
| CC(=O)Oc1c(C(F)(F)F)c(O)c2c(=O)cc(-c3ccccc3)oc2c1C(F)(F)F | 2900 | – |
| COc1cc(OC)c2c(=O)cc(-c3ccccc3)oc2c1I | 2600 | 2200 |
| COc1c([N+](=O)[O-])c(O)c2c(=O)cc(-c3ccccc3)oc2c1I | 2300 | 6400 |
| O=c1cc(-c2ccccc2)oc2c(Br)c(O)c(Br)c(O)c12 | 4000 | 5100 |

Further lines, results first:

| IC50 [1] [nM] | IC50 [2] [nM] | Structure (SMILES) |
| --- | --- | --- |
| 3100 | 5800 | O=c1cc(-c2ccccc2)oc2cc(O)cc(O)c12 [CHRYSIN] |
| 1900 | 2500 | COc1cc(O)c2c(=O)cc(-c3ccccc3)oc2c1Br |
| 3000 | 4200 | CC(=O)Oc1c(I)c(O)c2c(=O)cc(-c3ccccc3)oc2c1I |
| 2000 | 3700 | COc1cc(OC)c2c(=O)cc(-c3ccccc3)oc2c1 [CHRYSIN DIMETHYL ETHER] |
| 3800 | 3600 | CC(=O)Oc1cc(O)c2c(=O)cc(-c3ccccc3)oc2c1 |
| 2600 | 4500 | CC(=O)Oc1cc(OC(C)=O)c2c(=O)cc(-c3ccccc3)oc2c1 [CHRYSIN DIACETATE] |
